Reference: paper PMC10498358 (2023)

What was measured:
[1] = test system: p(dGdC)2 (poly dGdC–poly dGdC) (DNA, polymer) GC; test: fluorescence titration, Scatchard fit; conditions: I = 0.05 M (sodium cacodylate); sodium cacodylate buffer, pH 7.0; polynucleotide concentration as phosphates; n fixed at 0.2; per base
[2] = test system: pApU (poly A–poly U) (RNA, polymer) A/U; test: fluorescence titration, Scatchard fit; conditions: I = 0.05 M (sodium cacodylate); sodium cacodylate buffer, pH 7.0; polynucleotide concentration as phosphates; n fixed at 0.2; per base
[3] = test system: pApU (poly A–poly U) (RNA, polymer) A/U; test: UV thermal denaturation at 260 nm; conditions: I = 0.05 M (sodium cacodylate); sodium cacodylate buffer, pH 7.0; r = [compound]/[RNA] = 0.3; error ±0.5 °C; per base
[4] = test system: p(dAdT)2 (poly dAdT–poly dAdT) (DNA, polymer) AT; test: fluorescence titration, Scatchard fit; conditions: I = 0.05 M (sodium cacodylate); sodium cacodylate buffer, pH 7.0; polynucleotide concentration as phosphates; n fixed at 0.2; per base

SMILES	log K [1]	log K [2]	ΔTm [3]	log K [4]
COc1c2cc(N)cc1Cc1cc(C(C)(C)C)cc(c1OCc1nccn1C)Cc1cc(NC(=O)CCCc3ccc4ccc5cccc6ccc3c4c56)cc(c1OC)Cc1cc(C(C)(C)C)cc(c1OCc1nccn1C)C2	5.7	6.4	+1 °C	7.4
COc1c2cc(NC(=O)CCCc3ccc4ccc5cccc6ccc3c4c56)cc1Cc1cc(C(C)(C)C)cc(c1OCc1nccn1C)Cc1cc(NC(=O)CCCc3ccc4ccc5cccc6ccc3c4c56)cc(c1OC)Cc1cc(C(C)(C)C)cc(c1OCc1nccn1C)C2	6.9	7.2	-1 °C	6.6
